Data on two compounds can be found in paper PMC3709815, “Reconstructing a Flavodoxin Oxidoreductase with Early Amino Acids” (International Journal of Molecular Sciences, 2013).

What all share (type): binding
Experiment [1] deals with T1, Megasphaera elsdenii flavodoxin (apoflavodoxin) (Megasphaera elsdenii, UniProt P00321, C127V/C54A/F36V/F70L/F71L/F86V/M120V/M16L/M57V/M97L/W100V/W7V/W91V/W96V/Y6V/Y89V).
T1 construct: synthetic gene in pET28b(+) NdeI/BamHI, 6xHis tag kept, E. coli BL21(DE3); apoprotein by trichloroacetic acid
T1 sequence (P00321 other isoform, or with tags, fused parts or gaps with the stated changes): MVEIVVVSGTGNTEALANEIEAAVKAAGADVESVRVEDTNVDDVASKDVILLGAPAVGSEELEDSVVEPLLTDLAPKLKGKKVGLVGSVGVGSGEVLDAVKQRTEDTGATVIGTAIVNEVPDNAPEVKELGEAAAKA
In words: calculated from Kd,ox and redox potential Em, […] (anaerobic dithionite titration with redox dyes). The conditions noted are these: read-out: Kd,hq.

For experiment [2], the target named is T2, Megasphaera elsdenii flavodoxin (apoflavodoxin) (Megasphaera elsdenii, UniProt P00321).
T2 construct: synthetic gene in pET28b(+) NdeI/BamHI, 6xHis tag kept, E. coli BL21(DE3); apoprotein by trichloroacetic acid
T2 sequence (P00321 whole entry): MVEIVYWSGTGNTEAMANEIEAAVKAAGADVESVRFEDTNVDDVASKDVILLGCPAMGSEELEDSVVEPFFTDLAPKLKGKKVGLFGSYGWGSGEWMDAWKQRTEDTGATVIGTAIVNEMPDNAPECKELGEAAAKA
As to the kind of experiment: far-UV circular dichroism of apo- and holoflavodoxin, reconstitution with FMN. The conditions noted are these: oxidized state; holoprotein reconstituted with 1.0 mM FMN, 40 mM sodium phosphate pH 7.0. For orientation: CD spectra are sensitive to the conformation of chiral molecules.

Experiment [3] deals with T1, Megasphaera elsdenii flavodoxin (apoflavodoxin). As to the kind of experiment: fluorescence titration of FMN with apoflavodoxin (ex […] nm, em […] nm). The conditions noted are these: read-out: Kd,ox.

As usually defined, the Kd is the concentration at which binding is half-saturated. As for `Cc1cc2c(cc1C)N(C[C@H](O)[C@H](O)[C@H](O)COP(=O)(O)O)c1[nH]c(=O)[nH]c(=O)c1N2` [FMNhq], the Kd in experiment [1] is 43.6 mM.

For the compound `Cc1cc2nc3c(=O)[nH]c(=O)nc-3n(C[C@H](O)[C@H](O)[C@H](O)COP(=O)(O)O)c2cc1C` [FMN], the “far-UV circular dichroism of apo- and holoflavodoxin, reconstitution with FMN” value in experiment [2] is “conformation transition of mutant and wild-type protein induced by FMN binding is different”. Also, in experiment [3], the Kd is 0.00292 mM.
